# Measured values: paper PMC9889419 (Pharmacological Reports, 2022)
# “Also recorded” adds a separate entry of the source. Counter-ions that a name gives are not always drawn. Like-named read-outs stand apart in the source and are kept apart here.
# Assays:
# [1] = test system: rats; format: in vivo; conditions: ip
# [2] = test system: mice; experiment: iv pentylenetetrazole (PTZ) seizure threshold test; conditions: compound ip
# Protocol: They were also evaluated in the iv pentylenetetrazole (PTZ) test.
# Data are expressed as the mean PTZ dose ± SEM for n = 10 that induced clonus or twitch in mice exposed to a particular dose of the test compound
# [3] = test system: rats; experiment: Maximal electroshock seizure (MES) test; format: in vivo
# [4] = molecular target: T1, M5 (Homo sapiens, UniProt P08912); experiment: Radioligand binding
# T1 sequence (P08912 1-532): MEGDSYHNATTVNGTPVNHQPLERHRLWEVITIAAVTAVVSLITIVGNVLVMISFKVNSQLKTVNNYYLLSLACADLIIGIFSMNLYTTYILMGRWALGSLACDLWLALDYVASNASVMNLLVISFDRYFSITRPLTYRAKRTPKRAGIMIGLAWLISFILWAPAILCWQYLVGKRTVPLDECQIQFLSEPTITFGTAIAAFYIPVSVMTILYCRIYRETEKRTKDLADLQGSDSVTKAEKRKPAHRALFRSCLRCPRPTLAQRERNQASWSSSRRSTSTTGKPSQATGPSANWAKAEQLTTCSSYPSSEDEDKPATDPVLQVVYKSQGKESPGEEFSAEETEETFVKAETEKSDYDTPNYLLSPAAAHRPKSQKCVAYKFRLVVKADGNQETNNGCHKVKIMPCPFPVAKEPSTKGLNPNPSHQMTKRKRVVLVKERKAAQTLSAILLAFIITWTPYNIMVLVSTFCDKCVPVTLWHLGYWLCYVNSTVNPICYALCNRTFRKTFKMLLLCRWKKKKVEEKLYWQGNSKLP
# Protocol: (§1) Radioligand binding. Radioligand binding assays were performed at Eurofins CEREP (France). The results are expressed as a percent of control specific binding (measured specific binding*100/control specific binding) and as a percent inhibition of control specific binding (100-(measured specific binding*100)/control specific binding) obtained in the presence of the test compounds. The IC50 values (concentration causing a half-maximal inhibition of control specific binding) and Hill coefficients (nH) were determined by non-linear regression analysis of the competition curves generated with mean replicate values using Hill equation curve fitting (Y = D + [A-D]/[1 + (C/C50)^nH], where Y = specific binding, A = left asymptote of the curve, D = right asymptote of the curve, C = compound concentration, C50 = IC50, and nH = slope factor). This analysis was performed using software developed at Cerep (Hill software) and validated by comparison with data generated by the commercial software SigmaPlot® 4.0 for Windows® (© 1997 by SPSS Inc.). The inhibition constants (Ki) were calculated using the Cheng Prusoff equation (Ki = IC50/[1 + L/KD], where L = concentration of radioligand in the assay, and KD = affinity of the radioligand for the receptor). A scatchard plot is used to determine the Kd.
# [5] = molecular target: 5-HT2A (Homo sapiens, UniProt P28223); experiment: Radioligand binding
# Protocol: as §1
# [6] = molecular target: D2S (Homo sapiens, UniProt P14416); experiment: Radioligand binding
# Protocol: as §1
# [7] = molecular target: T2, 5-HT2C (Homo sapiens, UniProt P28335); experiment: Radioligand binding
# T2 sequence (P28335 33-458): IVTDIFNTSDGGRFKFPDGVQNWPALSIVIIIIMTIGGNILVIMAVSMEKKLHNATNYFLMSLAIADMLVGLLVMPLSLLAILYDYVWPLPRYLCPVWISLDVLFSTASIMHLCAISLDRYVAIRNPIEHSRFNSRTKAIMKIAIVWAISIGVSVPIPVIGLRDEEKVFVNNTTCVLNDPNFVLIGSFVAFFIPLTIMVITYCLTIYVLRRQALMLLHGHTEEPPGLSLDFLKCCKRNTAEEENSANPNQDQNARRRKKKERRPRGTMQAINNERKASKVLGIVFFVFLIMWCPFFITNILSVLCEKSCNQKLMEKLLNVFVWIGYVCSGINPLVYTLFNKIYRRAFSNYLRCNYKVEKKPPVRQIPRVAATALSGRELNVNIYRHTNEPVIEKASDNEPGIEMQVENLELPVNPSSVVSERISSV
# Protocol: as §1
# [8] = molecular target: 5-HT transporter (Homo sapiens, UniProt P31645); experiment: Radioligand binding
# Protocol: as §1
# [9] = test system: mice
# Protocol: The assays were carried out within the Epilepsy Therapy Screening Program (ETSP, previously known as the Anticonvulsant Screening Program, ASP), Epilepsy Branch, National Institute of Neurological and Communicative Disorders and Stroke, National Institutes of Health in Rockville, MD, USA [23].
# The obtained compounds were screened for antiseizure activity and neurotoxicity in vivo within the Epilepsy Therapy Screening Program (ETSP, previously known as the Anticonvulsant Screening Program, ASP), Epilepsy Branch, National Institute of Neurological and Communicative Disorders and Stroke, National Institutes of Health in Rockville, MD, USA [23].
# [10] = test system: mice; experiment: Corneal kindling; format: in vivo; conditions: ip
# [11] = test system: mice; experiment: 6 Hz test; format: in vivo; conditions: mice; for ED50: Mus musculus
# Protocol: The 6 Hz model test was carried out according to the protocol originally described by Brown et al. [54] and more recently by Barton et al. [55] and Kamiński et al. [47] and is a model of pharmacoresistant epilepsy [56].
# [12] = test system: rats; experiment: SCMET (subcutaneous Metrazol) test; format: in vivo; conditions: for SCMET ED50: rats
# [13] = test system: mice; experiment: Formalin test (ETSP, area under the curve); format: in vivo; conditions: ip
# [14] = test system: Na+ channel (site 2); experiment: Radioligand binding; set-up: species or system rat
# [15] = test system: Ca2+ channel (L, verapamil site) (phenylalkylamine); experiment: Radioligand binding; set-up: species or system rat
# Protocol: as §1
# [16] = test system: α2 (non-selective); experiment: Radioligand binding; set-up: species or system rat
# Protocol: as §1
# [17] = test system: Sigma (non-selective); experiment: Radioligand binding; set-up: species or system rat
# Protocol: as §1
# [18] = 0.1 μM, read-out: % of control specific binding
# [19] = 1 μM, read-out: % of control specific binding
# [20] = 10 μM, read-out: % of control specific binding
# [21] = 100 μM, read-out: % of control specific binding
# [22] = 3 μM, read-out: % of control specific binding
# Chain of 5-HT2A (P28223 whole entry): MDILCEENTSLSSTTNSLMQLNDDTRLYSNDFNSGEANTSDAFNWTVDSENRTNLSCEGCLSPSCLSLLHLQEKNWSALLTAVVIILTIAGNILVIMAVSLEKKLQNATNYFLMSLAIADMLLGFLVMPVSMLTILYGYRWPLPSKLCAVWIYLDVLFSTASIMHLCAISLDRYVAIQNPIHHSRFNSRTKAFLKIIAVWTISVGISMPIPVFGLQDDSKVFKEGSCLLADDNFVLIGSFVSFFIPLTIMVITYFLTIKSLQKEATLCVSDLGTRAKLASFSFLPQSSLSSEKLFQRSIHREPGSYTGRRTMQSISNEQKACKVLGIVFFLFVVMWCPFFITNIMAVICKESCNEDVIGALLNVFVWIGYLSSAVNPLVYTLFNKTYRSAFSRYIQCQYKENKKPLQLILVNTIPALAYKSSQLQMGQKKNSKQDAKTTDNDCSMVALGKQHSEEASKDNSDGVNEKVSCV
# Chain of D2S (P14416 1-414 isoform P14416-2): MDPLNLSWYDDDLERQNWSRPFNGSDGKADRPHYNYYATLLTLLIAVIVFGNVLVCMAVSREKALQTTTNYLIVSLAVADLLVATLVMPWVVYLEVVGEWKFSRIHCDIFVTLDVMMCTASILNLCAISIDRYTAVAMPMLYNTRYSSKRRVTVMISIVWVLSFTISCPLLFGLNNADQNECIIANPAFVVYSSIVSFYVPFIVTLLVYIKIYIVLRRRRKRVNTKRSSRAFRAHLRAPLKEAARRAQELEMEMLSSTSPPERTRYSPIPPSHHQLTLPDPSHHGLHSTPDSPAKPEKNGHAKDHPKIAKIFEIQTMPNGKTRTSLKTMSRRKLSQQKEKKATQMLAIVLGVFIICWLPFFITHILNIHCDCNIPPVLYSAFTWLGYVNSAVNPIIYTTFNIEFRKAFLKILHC
# Chain of 5-HT transporter (P31645 whole entry): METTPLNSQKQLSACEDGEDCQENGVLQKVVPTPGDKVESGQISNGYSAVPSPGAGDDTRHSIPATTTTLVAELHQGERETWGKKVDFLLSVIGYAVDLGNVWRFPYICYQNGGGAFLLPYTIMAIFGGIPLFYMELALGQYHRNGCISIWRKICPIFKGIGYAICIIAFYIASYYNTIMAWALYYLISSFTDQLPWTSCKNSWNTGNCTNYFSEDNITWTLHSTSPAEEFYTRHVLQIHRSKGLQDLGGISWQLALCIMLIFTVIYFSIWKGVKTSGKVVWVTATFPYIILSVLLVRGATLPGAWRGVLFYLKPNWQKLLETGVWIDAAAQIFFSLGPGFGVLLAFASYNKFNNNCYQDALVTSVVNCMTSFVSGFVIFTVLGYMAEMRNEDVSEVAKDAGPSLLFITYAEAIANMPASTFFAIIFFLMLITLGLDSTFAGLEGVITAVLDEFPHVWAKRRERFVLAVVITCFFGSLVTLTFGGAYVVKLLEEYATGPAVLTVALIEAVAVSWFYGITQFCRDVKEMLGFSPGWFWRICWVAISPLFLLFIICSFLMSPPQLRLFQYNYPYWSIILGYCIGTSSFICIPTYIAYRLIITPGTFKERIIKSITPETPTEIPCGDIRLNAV
smiles,measurement,setting,value
"CCC(CO)NCCOc1c(C)cccc1Cl (stereo not drawn) [Compound 4, R,S-2-((2-(2-chloro-6-methylphenoxy)ethyl)amino)butan-1-ol]",Hippocampal kindling avg. seizure score by Racine (0–5),"[1]; at 40 mg/kg, 0.25–2.25 h",5
same,influence on seizure threshold,[2],lowered the seizure threshold; also recorded: showed activity in lowering the seizure threshold
same,MES TPE,[3]; ip,0.25 h
same,MES ED50,"[3]; ip, […]",7.3 (5.39–9.89) mg/kg
same,MES ED50,[3]; po,> 60 mg/kg
same,MES PI,[3]; po,> 3.55
same,MES ED50,"[3]; po, […]",67.69 (43.01–93.82) mg/kg
same,% of control specific binding,[4]; 100 μM,21.5%
same,% of control specific binding,[5]; 100 μM,37.1%
same,% of control specific binding,[6]; 100 μM,33.3%
same,% of control specific binding,[7]; 100 μM,44.6%
same,% of control specific binding,[8]; 100 μM,5.1%
same,MES TPE,"[9]; female mice, ip",0.25 h
same,MES ED50,"[9]; female mice, ip, […]",11.64 (10.55–12.47) mg/kg
same,MES ED50,"[9]; mice, ip, […]",21.44 (18.63–25.32) mg/kg
same,MES PI,"[9]; mice, po",6.12
same,MES TPE,"[9]; mice, po",0.5 h
same,MES ED50,"[9]; mice, po, 0.5 h",58.13 (45.58–68.93) mg/kg
same,Corneal kindling TPE,[10],0.25 h
same,Corneal kindling ED50,[10]; […],19.51 (11.86–28.41) mg/kg
same,6 Hz ED50,"[11]; 32 mA, ip",32.4 (28.4–36.0) mg/kg
same,6 Hz TPE,"[11]; 32 mA, ip",0.25 h
same,6 Hz ED50,"[11]; 44 mA, ip",29.75 (28.3–31.5) mg/kg
same,6 Hz TPE,"[11]; 44 mA, ip",0.25 h
same,SCMET ED50,"[12]; ip, […]",> 50 mg/kg
same,SCMET ED50,[12]; po,> 240 mg/kg
same,Area under the curve (I phase),[13]; 21 mg/kg,124.8 ± 32.7
same,Area under the curve (II phase),[13]; 21 mg/kg,569.2 ± 405.0
same,"Area under the curve, % of control (I phase)",[13]; 21 mg/kg,64.0%
same,"Area under the curve, % of control (II phase)",[13]; 21 mg/kg,72.7%
same,Area under the curve (I phase),"[13]; 21 mg/kg, listed as 348014",124.8
same,Area under the curve (II phase),"[13]; 21 mg/kg, listed as 348014",569.2
same,% of control specific binding,[14]; 100 μM,11.6%
same,% of control specific binding,[15]; 100 μM,38.5%
same,% of control specific binding,[16]; 100 μM,27.7%
same,% of control specific binding,[17]; 100 μM,-2.7%
"CCC(CO)NCCOc1c(C)cccc1Cl (stereo not drawn) [KM-408, R,S-2-((2-(2-chloro-6-methylphenoxy)ethyl)amino)butan-1-ol hydrochloride]",Hippocampal kindling: death at,[1]; […],200 mg/kg
same,influence on seizure threshold,[2],the effect was not observed
same,influence on seizure threshold,[2]; listed as KM408,effect was not shown
same,ED50,"[3]; Rattus norvegicus, ip, 0.25 h",5.69 mg/kg
same,MES PI,[3]; ip,9.55
same,MES TPE,[3]; ip,0.25 h
same,IC50,[4],35 µM
same,Ki,[4],18 µM
same,remaining activity at 0.01 µM,"[4]; 0.01 μM, read-out: % of control specific binding",104%
same,remaining activity at 0.1 µM,[4]; [18],92.6%
same,remaining activity at 1 µM,[4]; [19],96.8%
same,remaining activity at 10 µM,[4]; [20],76.6%
same,remaining activity at 100 µM,[4]; [21],26%
same,IC50,[5],55 µM
same,Ki,[5],30 µM
same,remaining activity at 0.1 µM,[5]; [18],104%
same,remaining activity at 1 µM,[5]; [19],95%
same,remaining activity at 3 µM,[5]; [22],94.1%
same,remaining activity at 10 µM,[5]; [20],85.1%
same,remaining activity at 100 µM,[5]; [21],36.9%
same,IC50,[6],100 µM
same,Ki,[6],34 µM
same,remaining activity at 0.1 µM,[6]; [18],96.2%
same,remaining activity at 1 µM,[6]; [19],96.5%
same,remaining activity at 3 µM,[6]; [22],92.8%
same,remaining activity at 10 µM,[6]; [20],86%
same,remaining activity at 100 µM,[6]; [21],49.1%
same,IC50,[7],77 µM
same,Ki,[7],26 µM
same,remaining activity at 0.1 µM,[7]; [18],95.6%
same,remaining activity at 1 µM,[7]; [19],87.1%
same,remaining activity at 3 µM,[7]; [22],95.2%
same,remaining activity at 10 µM,[7]; [20],82.4%
same,remaining activity at 100 µM,[7]; [21],40.6%
same,IC50,[8],3.6 µM
same,Ki,[8],1.7 µM
same,remaining activity at 0.003 µM,"[8]; 0.003 μM, read-out: % of control specific binding",105%
same,remaining activity at 0.03 µM,"[8]; 0.03 μM, read-out: % of control specific binding",112%
same,remaining activity at 0.3 µM,"[8]; 0.3 μM, read-out: % of control specific binding",92.8%
same,remaining activity at 3 µM,[8]; [22],61%
same,remaining activity at 30 µM,"[8]; 30 μM, read-out: % of control specific binding",11.5%
same,MES TPE,"[9]; mice, ip",0.25 h
same,Corneal kindling avg. seizure score by Racine (0–5),"[10]; at 30 mg/kg, […]",2.5
same,6 Hz TPE,"[11]; 32 mA, ip",0.25 h
same,6 Hz TPE,"[11]; 44 mA, ip",0.25 h
same,6 Hz TPE,"[11]; 44 mA, po",0.25 h
same,ED50,"[11]; ip, 32 mA",29.4 mg/kg
same,ED50,"[11]; ip, 44 mA",35.1 mg/kg
same,ED50,"[11]; po, 44 mA",281 mg/kg
same,ED50,"[12]; Rattus norvegicus, ip, […], read-out: SCMET ED50",> 54 mg/kg
same,Area under the curve (I phase),[13]; 13.25 mg/kg,113.7 ± 65.6
same,Area under the curve (II phase),[13]; 13.25 mg/kg,489.7 ± 211.3
same,IC50,[14],15 µM
same,Ki,[14],14 µM
same,% of control specific binding,[14]; 0.3 μM,101.1%
same,% of control specific binding,[14]; 3 μM,92.0%
same,% of control specific binding,[14]; 30 μM,40.3%
same,IC50,[15],43 µM
same,Ki,[15],22 µM
same,% of control specific binding,[15]; 0.1 μM,101.9%
same,% of control specific binding,[15]; 1 μM,104.4%
same,% of control specific binding,[15]; 3 μM,93.6%
same,% of control specific binding,[15]; 10 μM,80.9%
same,% of control specific binding,[15]; 100 μM,34.8%
same,IC50,[16],24 µM
same,Ki,[16],10 µM
same,% of control specific binding,[16]; 0.01 μM,101.3%
same,% of control specific binding,[16]; 0.1 μM,111.6%
same,% of control specific binding,[16]; 1 μM,101.2%
same,% of control specific binding,[16]; 10 μM,73.4%
same,% of control specific binding,[16]; 100 μM,23.5%
same,IC50,[17],0.089 µM
same,Ki,[17],0.072 µM
same,% of control specific binding,[17]; 0.001 μM,104.0%
same,% of control specific binding,[17]; 0.01 μM,97.1%
same,% of control specific binding,[17]; 0.1 μM,50.0%
same,% of control specific binding,[17]; 1 μM,13.1%
same,% of control specific binding,[17]; 10 μM,1.4%
